Measured values: US20050009868A1, “Retinoid receptor pan-antagonists for stimulating chondrogenesis” (priority 2001, published 2005)
Read-outs that look alike come from different tables or passages of the source. Each block holds one compound with its values, some of them ahead of it.

What was measured:
[1] = tested on: RA response element (pW1-βRARE3-Luc); assay: Retinoic acid responsive reporter (pW1-βRARE3-Luc) luciferase assay in primary limb mesenchymal cells; format: cell-based, mouse; conditions: for effect on RARE reporter activity (in words): concentration series
Protocol: (§1) Limb mesenchymal cells were harvested from embryonic age 11.25-11.75 mouse embryos as previously described (Weston et al., 2000). The cells were resuspended at a density of about 2.5×10^7 cells/ml prior to transfections, otherwise they were resuspended at 1.5×10^7 cells/ml. For transfection purposes, cells were mixed with a DNA/FuGene6 mixture in a 2:1 ratio. FuGene6-DNA mixtures were prepared according to the manufacturer's instructions (Roche Biomolecular). Briefly, 1 μg of reporter, 1 μg of expression vector and 0.05 μg of pRLSV40 (Promega) were mixed for a total of about 2 μg DNA in 100 μL of media and FuGene6. Fifty microlitres of the DNA mixture was transferred into a sterile 1.5 ml eppendorf tube, followed by 100 μl of cells. Cells were gently triturated and 10 μl was used to seed each single well of a 24-well culture dish. After 1.5 hrs in a humidified CO2 incubator, 1 ml of media containing compounds of interest was added to each well and was subsequently replaced 24 hours following transfection. All-trans RA (at-RA; Sigma), AGN193836 (Teng et al., 1996), AGN194301 (Teng et al., 1997) and AGN194310 (Johnson et al., 1999)(Allergan Inc.) were dissolved in 95% ethanol. SB202190 and SB203580 (Calbiochem) and H89 (Sigma) were dissolved in dimethyl sulfoxide (DMSO) (BDH). 8-(4-chlorophenylthio)-cAMP (pCPT-cAMP, Sigma) was dissolved in water just prior to use.
(§2) Analysis of reporter gene activity using the Dual Luciferase Assay System was done following the manufacturer's instructions (Promega). Briefly, approximately 48 hours following the transfections, cells were washed once with PBS and lysed in 100 μl of Passive Lysis Buffer for 20 minutes. Firefly and renilla luciferase activities were determined using 40 μl of lysate in a 96-well plate-reading luminometer (Molecular Devices). Alcian blue staining of cultures was carried out as described previously (Cash et al., 1997).

pGL3(4×48) Sox9 reporter = assay: Sox9 reporter (pGL3(4×48)) luciferase assay in transiently transfected primary limb mesenchymal cultures; format: cell-based, mouse; conditions: for effect on the antagonist-induced increase in Sox9 reporter activity (in words): co-treatment with AGN194301 or AGN194310
From the text: The Sox9 responsive reporter (herein referred to as the Sox9 reporter) was generated by subcloning a fragment containing a reiterated (4×48) Sox9 binding sequence coupled to the mouse Col2a1 minimal promoter (−89 to +6) into pGL3. The fragment containing the 4×48 repeat and minimal promoter was isolated as a BamH I/Hind III fragment from the original 4×48-p89Luc reporter plasmid previously described (Lefebvre et al., 1997), and was subcloned into the BgI II and Hind III sites of pGL3-basic (Promega) to generate pGL3(4×48). The reporter pW1-Col2-Luc was generated from the original p309i(182×2)βgeoCol2a1 (Zhou et al., 1995) by subcloning the regulatory region (consisting of a 309-bp promoter region and two tandem repeats of a 182-bp intron-1 fragment) into pW1 (Balkan et al., 1992) as an EcoR I/BamH I fragment. A BgI II fragment containing the luciferase gene isolated from pJD205 (de Wet et al., 1987) was subcloned into the BamH I site of pW1-Col2 to generate pW1-Col2-Luc. The pcDNA3-hSox9 expression vector was as described (Lefebvre et al., 1997). To generate a mutated form of hSox9, hSox9 was subcloned into pKSII (Stratagene) and serine 181 was replaced with alanine, using the Quick-Change XL system (Stratagene) with the following overlapping primers: 5′-[…]-3′, and 5′-[…]-3′. Following mutagenesis, the Sox9 mutant and wt Sox9 were subcloned into pcDNA3, and the serine-alanine conversion was confirmed by sequencing.
as §1, §2

[2] = tested on: primary limb mesenchymal cultures; conditions: earlier work, Weston et al., 2000; cited from earlier work
Sox9 mRNA = assay: Northern blot of Sox9 mRNA in limb mesenchymal cultures; format: cell-based, mouse; conditions: 1 μM, 2-day cultures
Protocol: Northern blots were carried out using total RNA from limb mesenchymal cultures, as previously described (Weston et al., 2000). Briefly, total RNA was extracted from cells cultured for 2, 4, 6 or 8 days. Cells were treated with media alone or with AGN 194301. Synthesis of the Col2a1 cDNA fragment used was as described previously (Weston et al., 2000). The Sox9 cDNA probe was made using an EST clone, GenBank accession number Al594348 (Research Genetics). The Sox9 fragment was released from pT7T3 using Eco RI and Not I.

[3] = tested on: primary limb mesenchymal cultures; assay: Cartilage nodule formation in primary limb mesenchymal cultures (alcian blue staining); format: cell-based, mouse
Protocol: as §1, §2

IL-2 gene expression = conditions: Koyama et al., 2000; read-out: IC50 for inhibition of IL-2 gene expression; cited from earlier work
[4] = 10 μM, versus untreated control cultures
[5] = day 4 alcian blue-stained cultures

- maximal induction of Sox9 reporter activity (pGL3(4×48) Sox9 reporter; at 50 nM, primary limb mesenchymal cells): ~530%
- concentration inducing Sox9 reporter activity greater than the maximal response elicited by 301 (pGL3(4×48) Sox9 reporter; concentrations as low as): ≥ 10 nM
Structure (SMILES): CCc1ccc(C2=CC(C)(C)Sc3ccc(C#Cc4ccc(C(=O)O)cc4)cc32)cc1 [AGN194310]
- effect on RARE reporter activity (in words) [1]: attenuated by 310 more effectively than by 301
- concentration at which increase in nodule formation can be observed ([3]; treatment for 4 days, alcian blue): 10 nM

- effect on Sox9 reporter activity (in words) (pGL3(4×48) Sox9 reporter; 10 μM, absence of exogenous Sox9): repressed reporter activity
- effect on Sox9 reporter activity (in words) (pGL3(4×48) Sox9 reporter; presence of co-transfected Sox9): slightly decreased reporter activity
Structure (SMILES): O=S(=O)(NCCNC/C=C/c1ccc(Br)cc1)c1cccc2cnccc12 [H89]
- effect on the antagonist-induced increase in Sox9 reporter activity (in words) (pGL3(4×48) Sox9 reporter): reduced Sox9 reporter activity both in the presence or absence of AGN194301 or dnRARα
- cartilage nodule formation (in words) [3, 4]: fewer nodules are detected compared to untreated cultures

- effect on the antagonist-induced increase in Sox9 reporter activity (in words) (pGL3(4×48) Sox9 reporter): attenuated the 310-induced increase
Structure (SMILES): CC(/C=C/C(=O)NO)=C\[C@@H](C)C(=O)c1ccc(N(C)C)cc1 [TSA, Trichostatin A]
- effect on RARE reporter activity (in words) [1]: enhanced activity of the pW1-αRARE3tkLuc reporter in a concentration-dependent manner
- IC50 (IL-2 gene expression): 73 nM
- effect on Sox9 reporter activity (in words) (pGL3(4×48) Sox9 reporter; concentration series): dose-dependent decrease in Sox9 reporter activity
- cartilage nodule formation (in words) [3, 5]: decrease in the number of cartilage nodules

Further lines, the compound ahead of its results:

Structure (SMILES): Cc1ccc(C2=CC(C)(C)Oc3c(Br)cc(C(=O)Nc4ccc(C(=O)O)c(F)c4)cc32)cc1 [AGN194301, 2-Fluoro-4-[(1-(8-bromo-2,2-dimethyl-4-(4-methylphenyl)-2-H-chromen-6-yl)-methanoyl)-amino]-benzoic acid]
- concentrations inducing significant changes in activity of the RARE reporter (Bonferroni post-tests) ([1]; FIG. 1B, P at least <0.05): ≥ 100 nM
- concentrations giving significant differences in Sox9 reporter activity (Bonferroni post-tests) (pGL3(4×48) Sox9 reporter; FIG. 1A, P at least <0.05): ≥ 100 nM
- greatest induction of Sox9 reporter activity (pGL3(4×48) Sox9 reporter; at 1 μM, primary limb mesenchymal cells): about 280%
- effect on Sox9 reporter activity (in words) (pGL3(4×48) Sox9 reporter; concentration series): concentration-dependent increase in reporter activity
- cartilage nodule formation (in words) [2]: substantial increase in the number of cartilage nodules
- Sox9 mRNA expression (in words) (Sox9 mRNA): noticeable increase in Sox9 mRNA

Structure (SMILES): Oc1ccc(-c2nc(-c3ccncc3)c(-c3ccc(F)cc3)[nH]2)cc1 [SB202190]
- effect on Sox9 reporter activity (in words) (pGL3(4×48) Sox9 reporter; 5 or 10 μM): decrease in Sox9 reporter activity compared to untreated controls
- effect on the antagonist-induced increase in Sox9 reporter activity (in words) (pGL3(4×48) Sox9 reporter): attenuated the chondrogenic response to AGN194301
- cartilage nodule formation (in words) [3, 4]: almost no cartilage nodules form

Structure (SMILES): CC1=C(/C=C/C(C)=C/C=C/C(C)=C/C(=O)O)C(C)(C)CCC1 [at-RA, All-trans RA]
- effect on RARE reporter activity (in words) [1]: activated the RARβ reporter to a greater extent than about 836
- Sox9 reporter activity reduced to (% of control) (pGL3(4×48) Sox9 reporter; at 5 nM): 53%
- effect on Sox9 reporter activity (in words) (pGL3(4×48) Sox9 reporter; concentration series): attenuated reporter activity
- cartilage nodule formation (in words) [3, 5]: more potent inhibitor of cartilage nodule formation than 836

Structure (SMILES): Nc1ncnc2c1nc(Sc1ccc(Cl)cc1)n2[C@@H]1O[C@@H]2COP(=O)(O)O[C@H]2[C@H]1O [pCPT-cAMP, 8-(4-chlorophenylthio)-cAMP]
- increase in Sox9 reporter activity (pGL3(4×48) Sox9 reporter; 500 μM, absence of exogenous Sox9): about 4.5 fold
- further increase in Sox9 reporter activity (pGL3(4×48) Sox9 reporter; co-transfection with wt Sox9 or Sox9-181A): < 1.5 fold
